# Source: US7358268B2, “Imidazole derivatives as factor Xa inhibitors” (Sanofi-Aventis Deutschland GmbH, priority 2002, dated 2008)
# Molecular target: T1, human factor Xa (Homo sapiens, UniProt P00742)
# T1 construct: 25 μl human factor Xa (Enzyme Research Laboratories, Inc; South Bend, Ind.) in TBS-PEG; purchased Enzyme Research Laboratories, Inc; South Bend, Ind
# Test: Factor Xa assay (chromogenic, purified enzyme)
# Assay type: biochemical
# Conditions: inhibition constant for factor Xa; chromogenic substrate S-2765 140 μM, enzyme 0.5 nM, 25° C., pH 7.8; Ki calculated from IC50 (Ki=IC50/{1+(substrate concentration/Km)}); read-out: Ki(FXa)
# Method: The ability of the compounds of the formula I to inhibit factor Xa or factor VIIa or other enzymes like thrombin, plasmin, or trypsin can be assessed by determining the concentration of the compound of the formula I that inhibits enzyme activity by 50%, i. e. the IC50 value, which was related to the inhibition constant Ki. Purified enzymes were used in chromogenic assays. The concentration of inhibitor that causes a 50% decrease in the rate of substrate hydrolysis was determined by linear regression after plotting the relative rates of hydrolysis (compared to the uninhibited control) versus the log of the concentration of the compound of formula I. For calculating the inhibition constant Ki, the IC50 value was corrected for competition with substrate using the formula Ki=IC50/{1+(substrate concentration/Km)} wherein Km is the Michaelis-Menten constant (Chen and Prusoff, Biochem. Pharmacol. 22 (1973), 3099-3108; I. H. Segal, Enzyme Kinetics, 1975, John Wiley & Sons, New York, 100-125; which were incorporated herein by reference). a) Factor Xa Assay
# In the assay for determining the inhibition of factor Xa activity TBS-PEG buffer (50 mM Tris-HCl, pH 7.8, 200 mM NaCl, 0.05% (w/v) PEG-8000, 0.02% (w/v) NaN3) was used. The IC50 was determined by combining in appropriate wells of a Costar half-area microtiter plate 25 μl human factor Xa (Enzyme Research Laboratories, Inc.; South Bend, Ind.) in TBS-PEG; 40 μl 10% (v/v) DMSO in TBS-PEG (uninhibited control) or various concentrations of the compound to be tested diluted in 10% (v/v) DMSO in TBS-PEG; and substrate S-2765 (N(α)-benzyloxycarbonyl-D-Arg-Gly-L-Arg-p-nitroanilide; Kabi Pharmacia, Inc.; Franklin, Ohio) in TBS-PEG.
# The assay was performed by pre-incubating the compound of formula I plus enzyme for 10 min. Then the assay was initiated by adding substrate to obtain a final volume of 100 μl. The initial velocity of chromogenic substrate hydrolysis was measured by the change in absorbance at 405 nm using a Bio-tek Instruments kinetic plate reader (Ceres UV900HDi) at 25° C. during the linear portion of the time course (usually 1.5 min after addition of substrate). The enzyme concentration was 0.5 nM and substrate concentration was 140 μM.
# T1 sequence (P00742 235-488 limits assumed): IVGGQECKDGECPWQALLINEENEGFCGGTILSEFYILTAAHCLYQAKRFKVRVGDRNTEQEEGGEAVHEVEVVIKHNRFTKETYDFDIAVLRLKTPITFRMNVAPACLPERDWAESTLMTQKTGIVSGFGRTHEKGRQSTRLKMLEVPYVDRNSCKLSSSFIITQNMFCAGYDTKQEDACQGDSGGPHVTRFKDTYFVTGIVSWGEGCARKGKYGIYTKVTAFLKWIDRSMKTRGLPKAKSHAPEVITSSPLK
# T1 sequence (P00742 41-179 partner limits assumed): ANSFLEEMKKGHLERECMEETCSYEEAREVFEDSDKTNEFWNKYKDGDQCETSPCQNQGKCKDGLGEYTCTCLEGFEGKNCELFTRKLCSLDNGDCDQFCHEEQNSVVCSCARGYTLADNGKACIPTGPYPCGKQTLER
row,SMILES,Ki [nM]
1,CC(C)N1CCC(NC(=O)c2nc(C(=O)N(C)CCO)cn2Cc2cc(-c3ccc(Cl)s3)on2)CC1 [Example 42],126
2,"CC(C)N1CCC(NC(=O)c2nc(C(=O)N(C)C)cn2Cc2cc(-c3ccc(Cl)s3)on2)CC1 [Example 44, 1-[5-(5-Chloro-thiophen-2-yl)-isoxazol-3-ylmethyl]-1H-imidazole-2,4-dicarboxylic acid 4-dimethylamide 2-[(1-isopropyl-piperidin-4-yl)-amide]]",136
3,"CC(C)N1CCC(NC(=O)c2nc(C(=O)OCC(=O)OC(C)(C)C)cn2Cc2cc(-c3ccc(Cl)s3)on2)CC1 [Example 46, 1-[5-(5-Chloro-thiophen-2-yl)-isoxazol-3-ylmethyl]-2-(1-isopropyl-piperidin-4-ylcarbamoyl)-1H-imidazole-4-carboxylic acid tert-butoxycarbonylmethyl ester]",128
4,CC(C)N1CCC(NC(=O)c2nc(C(=O)NCCO)cn2Cc2cc(-c3ccc(Cl)s3)on2)CC1 [Example 47],77
5,"COC1CN(C(=O)c2cn(Cc3cc(-c4ccc(Cl)s4)on3)c(C(=O)NC3CCN(C(C)C)CC3)n2)C1 [Example 48, 1-[5-(5-Chloro-thiophen-2-yl)-isoxazol-3-ylmethyl]-4-(3-methoxy-azetidine-1-carbonyl)-1H-imidazole-2-carboxylic acid (1-isopropyl-piperidin-4-yl)-amide]",91
6,"O=C(NCC1CCN(c2ccncc2)CC1)c1nccn1Cc1cc(-c2ccc(Cl)s2)on1 [Example 63, 1-[5-(5-Chloro-thiophen-2-yl)-isoxazol-3-ylmethyl]-1H-imidazole-2-carboxylic acid (3,4,5,6-tetrahydro-2H-[1,4′]bipyridinyl-4-ylmethyl)-amide]",640
7,"O=C(NC1CCN(c2ccncc2)CC1)c1nccn1Cc1cc(-c2ccc(Cl)s2)on1 [Example 65, 1-[5-(5-Chloro-thiophen-2-yl)-isoxazol-3-ylmethyl]-1H-imidazole-2-carboxylic acid (3,4,5,6-tetrahydro-2H-[1,4′]bipyridinyl-4-yl)-amide]",118

# These reach a lower Ki. Values come first.
row,Ki [nM],SMILES
1,46,"CC(C)N1CCC(NC(=O)c2nc(C(N)=O)cn2Cc2cc(-c3ccc(Cl)s3)on2)CC1 [Example 41, 1-[5-(5-Chloro-thiophen-2-yl)-isoxazol-3-ylmethyl]-1H-imidazole-2,4-dicarboxylic acid 4-amide 2-[(1-isopropyl-piperidin-4-yl)-amide]]"
2,62,"CC(C)N1CCC(NC(=O)c2nc(C(=O)N3CC(O)C3)cn2Cc2cc(-c3ccc(Cl)s3)on2)CC1 [Example 43, 1-[5-(5-Chloro-thiophen-2-yl)-isoxazol-3-ylmethyl]-4-(3-hydroxy-azetidine-1-carbonyl)-1H-imidazole-2-carboxylic acid (1-isopropyl-piperidin-4-yl)-amide]"
3,57,"CC(C)N1CCC(NC(=O)c2nc(C(=O)OCC3CC3)cn2Cc2cc(-c3ccc(Cl)s3)on2)CC1 [Example 45, 1-[5-(5-Chloro-thiophen-2-yl)-isoxazol-3-ylmethyl]-2-(1-isopropyl-piperidin-4-ylcarbamoyl)-1H-imidazole-4-carboxylic acid cyclopropylmethyl ester]"
4,37,"COC(=O)CCc1cn(Cc2cc(-c3ccc(Cl)s3)on2)c(C(=O)NC2CCN(C(C)C)CC2)n1 [Example 49, 3-[1-[5-(5-Chloro-thiophen-2-yl)-isoxazol-3-ylmethyl]-2-(1-isopropyl-piperidin-4-ylcarbamoyl)-1H-imidazol-4-yl]-propionic acid methyl ester]"
5,49,"CC(C)N1CCC(NC(=O)c2nccn2Cc2cc(-c3ccc(Cl)s3)on2)CC1 [Example 60, 1-[5-(5-Chloro-thiophen-2-yl)-isoxazol-3-ylmethyl]-1H-imidazole-2-carboxylic acid (1-isopropyl-piperidin-4-yl)-amide]"
6,51,"CC(C)N1CCC(NC(=O)c2cnc(C(=O)N3CCCOCC3)n2Cc2cc(-c3ccc(Cl)s3)on2)CC1 [Example 71, 3-[5-(5-Chloro-thiophen-2-yl)-isoxazol-3-ylmethyl]-2-(perhydro-1,4-oxazepine-4-carbonyl)-3H-imidazole-4-carboxylic acid (1-isopropyl-piperidin-4-yl)-amide]"
